Measurements reported in article PMC6747323, “Discovery of Novel Angiotensin-Converting Enzyme Inhibitory Peptides from Todarodes pacificus and Their Inhibitory Mechanism: In Silico and In Vitro Studies” (International Journal of Molecular Sciences, 2019).
Ends that are not written are not given here. Peptide text beside a SMILES is read from it.

Biological target: T1, ACE from rabbit lungs (Oryctolagus cuniculus, UniProt P12822)
T1 construct: The ACE from rabbit lungs; purchased Sigma Chemical Company (St. Louis, MO, USA); host or cells: rabbit lung tissue
T1 sequence (P12822 34-1310): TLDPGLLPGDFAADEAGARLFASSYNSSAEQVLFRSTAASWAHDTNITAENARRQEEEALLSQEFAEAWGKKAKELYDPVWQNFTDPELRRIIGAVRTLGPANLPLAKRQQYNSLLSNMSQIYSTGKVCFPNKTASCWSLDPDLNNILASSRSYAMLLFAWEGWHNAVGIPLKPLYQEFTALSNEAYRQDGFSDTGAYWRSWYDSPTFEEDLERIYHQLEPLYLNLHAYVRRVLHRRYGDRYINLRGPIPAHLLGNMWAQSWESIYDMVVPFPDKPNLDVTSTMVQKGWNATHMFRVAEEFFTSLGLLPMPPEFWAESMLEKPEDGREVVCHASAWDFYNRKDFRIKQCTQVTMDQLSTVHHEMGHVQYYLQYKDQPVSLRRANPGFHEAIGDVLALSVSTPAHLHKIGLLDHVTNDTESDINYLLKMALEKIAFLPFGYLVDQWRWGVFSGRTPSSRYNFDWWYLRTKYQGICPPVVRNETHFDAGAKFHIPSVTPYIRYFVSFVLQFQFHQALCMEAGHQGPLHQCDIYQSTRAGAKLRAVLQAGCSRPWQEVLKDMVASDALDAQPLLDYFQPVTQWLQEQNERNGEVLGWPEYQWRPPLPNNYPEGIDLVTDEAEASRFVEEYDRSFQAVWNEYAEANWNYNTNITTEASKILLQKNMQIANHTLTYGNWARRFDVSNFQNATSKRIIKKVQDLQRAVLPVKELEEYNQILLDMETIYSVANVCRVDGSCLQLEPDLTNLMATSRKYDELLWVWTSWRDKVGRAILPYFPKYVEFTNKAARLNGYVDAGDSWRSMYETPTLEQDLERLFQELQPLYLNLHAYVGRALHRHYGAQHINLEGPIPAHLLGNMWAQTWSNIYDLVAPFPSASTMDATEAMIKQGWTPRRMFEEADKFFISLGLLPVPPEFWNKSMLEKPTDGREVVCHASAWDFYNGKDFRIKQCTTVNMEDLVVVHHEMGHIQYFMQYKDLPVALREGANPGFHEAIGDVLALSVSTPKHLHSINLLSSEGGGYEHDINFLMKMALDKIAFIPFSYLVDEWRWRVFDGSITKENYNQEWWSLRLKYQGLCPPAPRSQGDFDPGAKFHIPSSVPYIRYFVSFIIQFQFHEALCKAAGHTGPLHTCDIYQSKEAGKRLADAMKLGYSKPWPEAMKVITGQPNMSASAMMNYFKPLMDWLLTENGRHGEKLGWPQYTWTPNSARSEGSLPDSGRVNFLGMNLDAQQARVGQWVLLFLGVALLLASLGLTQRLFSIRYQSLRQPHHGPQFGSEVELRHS
Assay: In vitro ACE inhibitory activity (HHL substrate, hippuric acid by UPLC)
Type: biochemical
Conditions: synthesized new peptides, read-out: pIC50 (ACE inhibition) (converted)
Description: The tested peptides from t hmyosin heavy chain in Todarodes pacificus were provided by Anhui Guoping Pharmaceutical Co., Ltd. (Hefei, China). The ACE from rabbit lungs, hippuryl-histidyl-leucine (HHL), and hippuric acid (HA) were purchased from the Sigma Chemical Company (St. Louis, MO, USA). The solvents for high performance liquid chromatography (HPLC) including acetonitrile and trifluoroacetic acid (TFA) were provided by Merck (Darmstadt, Germany). All the other reagents and chemicals used were of analytical grade.
The ACE inhibitory activity analysis was performed based on Yu et al. with some modifications. HHL was dissolved in 100 mM sodium borate buffer (pH 8.3) to achieve a final concentration of 5.8 mM. A reaction mixture containing 50 μL of ACE solution (100 mU/mL) and 100 μL of sample were pre-incubated at 37 °C for 5 min. Subsequently, 150 μL HHL was added and the mixture was incubated at 37 °C for 60 min. The reaction was terminated by the addition of 200 μL of 0.1 M HCl. […] The amount of HA was determined via an ultra-performance liquid chromatography on a Waters Acquity UPLC BEH C18 column (1.7 μm, 2.1 mm × 100 mm). […] The degree of ACE inhibition was calculated as follows:(1) ACE inhibition activity (%)=A−B/A×100% where A was the HA concentration of a reaction containing ACE without peptide, B was the HA concentration of a reaction in the presence of ACE and peptide. […]

Which IC50 does the source give for `NCCCC[C@H](NC(=O)[C@@H]1CCCN1C(=O)[C@@H]1CCCN1C(=O)[C@@H](N)CC(N)=O)C(=O)O` [NPPK, Asn-Pro-Pro-Lys] (H-NPPK-OH) here?
Its IC50 is 38.9 µM.

System: ACE
Assay: not given
Conditions: from porcine skeletal muscle hydrolysate; cited from earlier work

For “Met-Asn-Pro-Pro-Lys (MNPPK; printed: Met-Asn-Pro-Pro-Lys)”, which “pIC50 (ACE inhibition)” value is on record?
The value was 3.02.

Same assay, conditions: peptide derived from catfish myofibrillar protein; cited from earlier work

For “Ile-Glu-Lys-Pro (IEKP; printed: Ile-Glu-Lys-Pro)”, which “IC50 (ACE inhibition)” value is on record?
Its value is 2.1 µg/mL.

Same assay, conditions: β-casein fragment; cited from earlier work

With KVLPVPQ as the compound, how does the “ACE inhibitory activity in vitro” value read?
The value was “relatively weak”.

System: spontaneously hypertensive rats
Assay: not given
Set-up: method as in PMID 28102435
Conditions: cited from earlier work

For KVLPVPQ, which Antihypertensive effect is on record?
The Antihypertensive effect was “effective”.

System: ACE
Assay: not given
Set-up: method as in AHTpin and BIOPEP-UWM databases
Conditions: Table S1, plant proteases without PREP; ref AHTpin and BIOPEP-UWM databases; cited from earlier work

For Ala-Gly [AG], which pIC50 is on record?
Its pIC50 is 2.60.

Which pIC50 does the source give for Ala-His [AH] here?
Its pIC50 is 3.28.

With Ala-Phe [AF] as the compound, how does the pIC50 read?
The pIC50 was 3.78.

With Ala-Ser-Leu [ASL] as the compound, how does the pIC50 read?
Its pIC50 is 3.99.

With Ala-Tyr [AY] as the compound, how does the pIC50 read?
Its pIC50 is 4.85.

Which pIC50 does the source give for Asn-Gly [NG] here?
Its pIC50 is 1.92.

Which pIC50 does the source give for Asn-Tyr [NY] here?
The pIC50 was 4.49.

For Asp-Gly [DG], which pIC50 is on record?
The pIC50 was 5.67.

For Asp-Tyr [DY], which pIC50 is on record?
The pIC50 was 4.00.

With Gln-Lys [QK] as the compound, how does the pIC50 read?
The pIC50 was 3.05.

Which pIC50 does the source give for Glu-Gly [EG] here?
Its pIC50 is 2.00.

With Glu-Trp [EW] as the compound, how does the pIC50 read?
The pIC50 was 3.86.

Which pIC50 does the source give for Glu-Tyr [EY] here?
The pIC50 was 5.57.

For Ile-Arg [IR], which pIC50 is on record?
Its pIC50 is 3.16.

With Ile-Leu as the compound, how does the pIC50 read?
Its pIC50 is 4.26.

Which pIC50 does the source give for Ile-Phe [IF] here?
Its pIC50 is 4.18.

Which pIC50 does the source give for Ile-Tyr [IY] here?
The pIC50 was 5.68.

With Met-Gly [MG] as the compound, how does the pIC50 read?
The pIC50 was 2.32.

For Met-Phe [MF], which pIC50 is on record?
Its pIC50 is 6.04.

Which pIC50 does the source give for Met-Tyr [MY] here?
The pIC50 was 3.71.

With Pro-Leu [PL] as the compound, how does the pIC50 read?
The pIC50 was 3.47.

With Pro-Pro-Lys [PPK] as the compound, how does the pIC50 read?
The pIC50 was 3.00.

With Ser-Gly [SG] as the compound, how does the pIC50 read?
Its pIC50 is 2.07.

For Ser-Phe [SF], which pIC50 is on record?
Its pIC50 is 3.89.

With Ser-Thr [ST] as the compound, how does the pIC50 read?
The pIC50 was 5.39.

With Thr-Phe [TF] as the compound, how does the pIC50 read?
The pIC50 was 4.74.

With Trp-Leu [WL] as the compound, how does the pIC50 read?
The pIC50 was 4.52.

Which pIC50 does the source give for Val-Ala-Phe [VAF] here?
Its pIC50 is 4.45.

Which pIC50 does the source give for Val-Phe [VF] here?
Its pIC50 is 5.04.

Same assay, conditions: Table S2, plant proteases with PREP; ref AHTpin and BIOPEP-UWM databases; cited from earlier work

Which pIC50 does the source give for Ala-Ile-Pro [AIP] here?
The pIC50 was 3.46.

With Ala-Pro [AP] as the compound, how does the pIC50 read?
Its pIC50 is 4.54.

With Ala-Val-Pro [AVP] as the compound, how does the pIC50 read?
Its pIC50 is 3.47.

Which pIC50 does the source give for Lys-Pro [KP] here?
The pIC50 was 4.66.

For Thr-Pro [TP], which pIC50 is on record?
Its pIC50 is 3.54.

With Val-Pro [VP] as the compound, how does the pIC50 read?
The pIC50 was 3.38.
